{"source": "patent US11980648B2", "about": "“Compositions including ginsenoside 20(S)-Rg3 and methods of using ginsenoside 20(S)-Rg3 to inhibit alpha herpesvirus” (MIDDLE TENNESSEE STATE UNIVERSITY, priority 2020, dated 2024)", "key": {"HSV-1 [1]": {"tested_on": "HSV-1", "experiment": "Virus inhibition, HSV-1 on Vero cells (PrestoBlue)", "type": "cell-based, herpes simplex virus type 1 (MacIntyre strain)", "conditions": "at the non-toxic concentration of Table 1; MOI 0.1; compound and virus added simultaneously; parentheses = greater cell death than virus alone", "description": "(§1) Viruses and Quantification. Herpes simplex virus type 1 (HSV-1, MacIntyre strain, ATCC, VR-539) or herpes simplex virus type 2 (HSV-2, ATCC, VR-734) were used in these studies. Virus titer was determined by plaque assay. Briefly, following 2 hour-adsorption of various virus dilutions onto a Vero cell monolayer in a 24-well plate, the medium was removed and cells were overlaid with 1.5% carboxymethylcellulose (Sigma Chemical Company, St. Louis, Mo.) and incubated 48 hours at 37° C. with 5% CO2. After incubation, cells were fixed with methanol, stained with Giemsa (Sigma Chemical Company, St. Louis, Mo.) and plaques were counted. Each virus dilution was prepared in quadruplicate.\n(§2) Cytotoxicity and Virus Inhibition. All ginsenosides, isomers, and protopanaxadiols were evaluated for toxic effects on Vero cells prior to anti-viral testing. Cells were seeded at 5000 cells/well in a black 96-well plate with clear bottom in a volume of 100 μL and allowed to attach for 24 hours. The P. ginseng compounds were prepared in DMSO at 100 μM and were taken through serial two-fold dilutions to determine the concentration when the rate of cell death was less than 10% compared to control, untreated cells. Each dilution was tested in three wells and all assays were repeated three times. Following a 48 hour-incubation at 37° C. in 5% CO2, 11 μL of PrestoBlue (Invitrogen, Carlsbad, Calif.) was added to each well and the plate was incubated for an additional 30 minutes. PrestoBlue determines cell viability by changing from blue to red as resazurin is reduced to resorufin by viable cells. Following the PrestoBlue incubation, fluorescence was determined by spectrophotometric reading using Soft Max Pro (Molecular Diagnostics, San Jose, Calif., USA).\n(§3) For cytotoxicity testing, 4 μL of dilutions of the ginsenosides or protopanaxadiols were added to 396 μL of medium 199 and 100 μL of this mixture was added to each of three wells. For anti-viral testing, 4 μL of the non-toxic reagent and 4 μL of HSV-1 or HSV-2 diluted to an MOI of 0.1 were added to 392 μL of medium 199 and 100 μL of this mixture was added to each of three wells. Virus inhibition was determined by comparing the cell death of reagent-exposed cells with cell death of control cells only receiving virus. The 50% inhibitory concentration (IC50) was determined through a series of two-fold dilutions and calculation by linear regression analysis."}, "Vero cells": {"tested_on": "Vero cells", "experiment": "Cytotoxicity on Vero cells (PrestoBlue)", "type": "cell-based", "conditions": "for Cytotoxicity (non-toxic concentration): concentration causing less than 10% cell death compared with controls, Vero cells, 48 hour incubation, tested from 100 μM in 2-fold dilutions", "description": "Cells. Vero cells (American Type Culture Collection (ATCC), Manassas, VA, CCL-81) were maintained in medium 199 (Sigma Chemical Company, St. Louis, MO) that was supplemented with 8% fetal bovine serum (Invitrogen, Carlsbad, CA), 1.25 μg/mL fungizone (Invitrogen, Carlsbad, CA) and penicillin-streptomycin, 1000 U/mL and 1 mg/mL respectively (Sigma Chemical Company, St. Louis, MO). Cells were passed weekly using 0.1% trypsin (Sigma Chemical Company, St. Louis, MO) to detach the cells from the flasks. Cell quantification was done by trypan blue exclusion.\nas §2, with “The P. ginseng compounds were prepared in DMSO at 100 μM and were taken through serial two-fold dilutions to determine the concentration when the rate of cell death was less than 10% compared to control, untreated cells.” left out\nas §3"}, "coxsackie B 3 virus": {"tested_on": "coxsackie B 3 virus", "conditions": "100 μg/mL; cited from earlier work"}, "human rhinovirus 3": {"tested_on": "human rhinovirus 3", "conditions": "100 μg/mL; cited from earlier work"}, "HSV-1 [2]": {"tested_on": "HSV-1", "experiment": "Plaque reduction of HSV-1 on Vero cell monolayer", "type": "cell-based, herpes simplex virus type 1 (MacIntyre strain)", "conditions": "valacyclovir 16 μM, 20(S)-Rg3 50 μM, about 50 PFU/well, 48 hours", "description": "as §1\nThe plaque assay procedure also was used to evaluate the percent plaque reduction; the only procedural change was that a constant virus concentration was used (50 plaque forming units (PFU)/well). Plaque reduction was measured by comparing the control (virus only), with valacyclovir (16 μM) with virus or 20(S)-Rg3 (50 μM) with virus. Sample wells were evaluated in quadruplicate. Following the 2 hour-virus adsorption, the methylcellulose-medium containing the same concentrations of valacyclovir or Rg3 was added to the appropriate wells. After 48 hours, plaques were fixed, stained and counted."}, "HSV-1 [3]": {"tested_on": "HSV-1", "experiment": "Time studies of HSV-1 inhibition (PrestoBlue)", "type": "cell-based, herpes simplex virus type 1", "conditions": "Human alphaherpesvirus 1; HSV-1 incubated with compound 0 to 4 hours prior to addition to cells; valacyclovir 16 μM; read-out: percent inhibition of HSV-1", "description": "Time Studies. For virus inhibition studies described above, reagent 20(S)-Rg3 and virus were added to cells simultaneously. To evaluate the potential mode of action of Rg3, various combinations of valacyclovir, Rg3 and HSV-1 were tested at different time periods. The following combinations were evaluated at both one hour and four hours: • Virus applied to cells first (for one hour or four hours), followed by addition of valacyclovir, Rg3 or both valacyclovir and Rg3 to the cells; • Valacyclovir or Rg3 or both valacyclovir and Rg3 applied to cells first (for one or four hours), followed by virus; • Valacyclovir or Rg3 incubated together with virus first for one or four hours then added to cells.\nAll procedures described for evaluation of virus inhibition were followed in identical fashion as outlined for the PrestoBlue procedure except valacyclovir was used at a constant concentration of 16 μM and 20(S)-Rg3 at 50 μM."}}, "note": "Where “and” joins values, the source holds several entries; their conditions need not be identical. Equal values may be shown once."}
{"compound": "20(S)-Rh2", "values": [{"measurement": "Percent Inhibition of HSV-1", "setting": "HSV-1 [1]", "value": 46.2, "unit": "%"}]}
{"compound": "CC(C)=CCC[C@@](C)(O)C1CC[C@]2(C)C1[C@H](O)CC1[C@@]3(C)CC[C@H](O[C@@H]4OC(CO)[C@@H](O)[C@@H](O)C4O[C@@H]4OC(CO)[C@@H](O)[C@@H](O)C4O)C(C)(C)C3CC[C@]12C", "note": "(stereo partly drawn) [20(R)-Rg3, 20(R)-ginsenoside-Rg3]", "values": [{"measurement": "Percent Inhibition of HSV-1", "setting": "HSV-1 [1]", "value": 22.7, "unit": "%"}]}
{"compound": "CC(C)=CCC[C@@](C)(O)[C@H]1CC[C@]2(C)[C@@H]1[C@H](O)C[C@@H]1[C@@]3(C)CC[C@H](O)C(C)(C)[C@@H]3CC[C@]12C", "note": "[20(R)-protopanaxadiol, reference compound]", "values": [{"measurement": "Cytotoxicity (non-toxic concentration)", "setting": "Vero cells", "value": 12.5, "unit": "µM"}, {"measurement": "Percent Inhibition of HSV-1", "setting": "HSV-1 [1]", "value": 14.4, "unit": "%"}]}
{"compound": "CC(C)=CCC[C@](C)(O)[C@H]1CC[C@]2(C)[C@@H]1[C@H](O)C[C@@H]1[C@@]3(C)CC[C@H](O)C(C)(C)[C@@H]3CC[C@]12C", "note": "[20(S)-protopanaxadiol, reference compound]", "values": [{"measurement": "toxicity", "setting": "Vero cells; 25 μM", "value": "non-toxic"}, {"measurement": "Cytotoxicity (non-toxic concentration)", "setting": "Vero cells", "value": 12.5, "unit": "µM"}]}
{"compound": "CC(C)=CCC[C@](C)(O[C@@H]1O[C@H](CO[C@@H]2O[C@H](CO)[C@@H](O)[C@H](O)[C@H]2O)[C@@H](O)[C@H](O)[C@H]1O)[C@H]1CC[C@]2(C)[C@@H]1[C@H](O)C[C@@H]1[C@@]3(C)CC[C@H](O[C@@H]4O[C@H](CO)[C@@H](O)[C@H](O)[C@H]4O[C@@H]4O[C@H](CO)[C@@H](O)[C@H](O)[C@H]4O)C(C)(C)[C@@H]3CC[C@]12C", "note": "[Rb1]", "values": [{"measurement": "Percent Inhibition of HSV-1", "setting": "HSV-1 [1]", "value": "23% and 23.3%"}]}
{"compound": "CC(C)=CCC[C@](C)(O[C@@H]1O[C@H](CO[C@@H]2OC[C@H](O)[C@H](O)[C@H]2O)[C@@H](O)[C@H](O)[C@H]1O)[C@H]1CC[C@]2(C)[C@@H]1[C@H](O)C[C@@H]1[C@@]3(C)CC[C@H](O[C@@H]4O[C@H](CO)[C@@H](O)[C@H](O)[C@H]4O[C@@H]4O[C@H](CO)[C@@H](O)[C@H](O)[C@H]4O)C(C)(C)[C@@H]3CC[C@]12C", "note": "[Rb2]", "values": [{"measurement": "Percent Inhibition of HSV-1", "setting": "HSV-1 [1]", "value": 26.4, "unit": "%"}]}
{"compound": "CC(C)=CCC[C@](C)(O[C@@H]1O[C@H](CO[C@@H]2OC[C@@H](O)[C@H](O)[C@H]2O)[C@@H](O)[C@H](O)[C@H]1O)[C@H]1CC[C@]2(C)[C@@H]1[C@H](O)C[C@@H]1[C@@]3(C)CC[C@H](O[C@@H]4O[C@H](CO)[C@@H](O)[C@H](O)[C@H]4O[C@@H]4O[C@H](CO)[C@@H](O)[C@H](O)[C@H]4O)C(C)(C)[C@@H]3CC[C@]12C", "note": "[Rb3]", "values": [{"measurement": "Percent Inhibition of HSV-1", "setting": "HSV-1 [1]", "value": 30.9, "unit": "%"}]}
{"compound": "CC(C)=CCC[C@](C)(O[C@@H]1O[C@H](CO)[C@@H](O)[C@H](O)[C@H]1O)[C@H]1CC[C@]2(C)[C@@H]1[C@H](O)C[C@@H]1[C@@]3(C)CC[C@H](O)C(C)(C)[C@@H]3[C@@H](O[C@@H]3O[C@H](CO)[C@@H](O)[C@H](O)[C@H]3O)C[C@]12C", "note": "[Rg1]", "values": [{"measurement": "Percent Inhibition of HSV-1", "setting": "HSV-1 [1]", "value": 13.2, "unit": "%"}]}
{"compound": "CC(C)=CCC[C@](C)(O)[C@H]1CC[C@]2(C)[C@@H]1[C@H](O)C[C@@H]1[C@@]3(C)CC[C@H](O)C(C)(C)[C@@H]3[C@@H](O[C@@H]3O[C@H](CO)[C@@H](O)[C@H](O)[C@H]3O[C@@H]3O[C@@H](C)[C@H](O)[C@@H](O)[C@H]3O)C[C@]12C", "note": "[Rg2]", "values": [{"measurement": "effect on coxsackie B 3 virus", "setting": "coxsackie B 3 virus", "value": "inhibitory effects"}, {"measurement": "effect on human rhinovirus 3", "setting": "human rhinovirus 3", "value": "inhibitory effects"}]}
{"compound": "CC(C)[C@H](N)C(=O)OCCOCn1cnc2c(=O)[nH]c(N)nc21", "note": "[Valacyclovir, reference compound]", "values": [{"measurement": "Percent Cell Death", "setting": "Vero cells; African green monkey, 48 h, 16 μM", "value": "1.2±0.4", "unit": "%"}, {"measurement": "Percent Reduction of plaques compared to the control", "setting": "HSV-1 [2]", "value": 85.7, "unit": "%"}, {"measurement": "Number of Plaques", "setting": "HSV-1 [2]; ± standard error", "value": "8.1 ± 1.1"}, {"measurement": "inhibition at 16 µM", "setting": "HSV-1 [3]", "value": "52.3 to 54.7", "unit": "%"}]}
